Values of other authors in PMC11187573, “Identification of SARS-CoV-2 Mpro inhibitors through deep reinforcement learning for de novo drug design and computational chemistry approaches” (RSC Medicinal Chemistry, 2024).

How the values were obtained:
[1] = system: SARS, SARS-CoV-2 and MERS Mpro; conditions: Origin ChEMBL; ref ChEMBL; cited from earlier work
Mpro = conditions: ML dataset, Origin COVID_Moonshot; ref COVID Moonshot; cited from earlier work

O=c1cc(-c2ccc(O)cc2)oc2cc(O)cc(O)c12 [CHEMBL28, Oc(cc1)ccc1C(Oc1c2c(O)cc(O)c1)=CC2=O]
IC50 [1]: 3020 nM

CC(Cc1ccc(O)c(O)c1)C(C)Cc1ccc(O)c(O)c1 (centres unmarked) [CHEMBL52, CC(Cc(cc1)cc(O)c1O)C(C)Cc(cc1)cc(O)c1O]
IC50 [1]: 2590 nM

Cc1c(OCC(F)(F)F)ccnc1C[S+]([O-])c1nc2ccccc2[nH]1 (centres unmarked) [CHEMBL480, Cc(c(C[S+](c1nc(cccc2)c2[nH]1)[O-])ncc1)c1OCC(F)(F)F]
IC50 [1]: 995 nM

O=c1cc(-c2ccccc2)oc2cc(O)c(O)c(O)c12 [CHEMBL8260, Oc(cc(c1c2O)OC(c3ccccc3)=CC1=O)c2O]
IC50 [1]: 20 nM

CNC(=O)ON(C(C)=O)C(=O)NC [CHEMBL9116, CC(N(C(NC)=O)OC(NC)=O)=O]
IC50 [1]: 1330 nM

Cc1ccc(S(=O)(=O)N[C@@H](Cc2ccccc2)C(=O)CCl)cc1 [CHEMBL60718, Cc(cc1)ccc1S(N[C@@H](Cc1ccccc1)C(CCl)=O)(=O)=O]
IC50 [1]: 1370 nM

O=c1c(O)cccc2cc(O)c(O)c(O)c12 [CHEMBL66953, Oc(cc(C=CC=C(C1=O)O)c1c1O)c1O]
IC50 [1]: 4580 nM

Nc1nc(S)c2ncn(C3OC(CO)C(O)C3O)c2n1 (centres unmarked) [CHEMBL119171, Nc(nc1S)nc2c1ncn2C(C1O)OC(CO)C1O]
IC50 [1]: 1080 nM

CN(C)C(=S)SSC(=S)N(C)C [CHEMBL120563, CN(C)C(SSC(N(C)C)=S)=S]
IC50 [1]: 50 nM

O=C(O)CCCCCCCCCCCCCCc1ccc(I)cc1 [CHEMBL128251]
IC50 [1]: 2250 nM

C=CC(=O)c1ccc2ccccc2c1 [CHEMBL154580, C=CC(c1cc2ccccc2cc1)=O]
IC50 [1]: 1240 nM

C[N+]1(C)CCC(OC(=O)C(c2ccccc2)c2ccccc2)CC1 [CHEMBL168067, C[N+](C)(CC1)CCC1OC(C(c1ccccc1)c1ccccc1)=O]
IC50 [1]: 2360 nM

Cc1coc2c1C(=O)C(=O)c1c-2ccc2c1CCCC2(C)C [CHEMBL187266, CC(C)(CCC1)c(cc2)c1c(C1=O)c2-c(occ2C)c2C1=O]
IC50 [1]: 1600 nM

O=C1C(=O)N(Cc2cc3ccccc3s2)c2ccc(F)cc21 [CHEMBL187598, O=C(c(cc(cc1)F)c1N1Cc2cc(cccc3)c3s2)C1=O]
IC50 [1]: 4820 nM

O=C1C(=O)N(Cc2cc3ccccc3s2)c2c1cccc2[N+](=O)[O-] [CHEMBL187717, [O-][N+](c(cccc1C2=O)c1N(Cc1cc(cccc3)c3s1)C2=O)=O]
IC50 [1]: 2000 nM

O=C1C(=O)N(Cc2cc3ccccc3s2)c2ccc(I)cc21 [CHEMBL190743, O=C(c(cc(cc1)I)c1N1Cc2cc(cccc3)c3s2)C1=O]
IC50 [1]: 950 nM

O=C1C(Cl)=C(Cl)C(=O)C(Cl)=C1Cl [CHEMBL192627, O=C(C(Cl)=C(C1=O)Cl)C(Cl)=C1Cl]
IC50 [1]: 20 nM

O=C(CSc1nccc(-c2csc(-c3ccccc3)n2)n1)Nc1cc(Cl)cc(Cl)c1 [CHEMBL208732, O=C(CSc1nc(-c2csc(-c3ccccc3)n2)ccn1)Nc1cc(Cl)cc(Cl)c1]
IC50 [1]: 3000 nM

O=C(Oc1ccc(S(=O)(=O)c2ccc(OC(=O)C(Cl)=C(Cl)Cl)cc2)cc1)C(Cl)=C(Cl)Cl [CHEMBL212454, O=C(C(Cl)=C(Cl)Cl)Oc(cc1)ccc1S(c(cc1)ccc1OC(C(Cl)=C(Cl)Cl)=O)(=O)=O]
IC50 [1]: 900 nM

Cc1cccc2c3c(ccc12)C1=C(C(=O)C3=O)[C@@H](C)CO1 [CHEMBL227075, C[C@@H]1C(C(C(c2c3ccc4c(C)cccc24)=O)=O)=C3OC1]
IC50 [1]: 3050 nM

CC(C)(C)OC(=O)NCCc1nnc(S(=O)(=O)Cc2ccc(Cl)cc2Cl)o1 [CHEMBL259018, CC(C)(C)OC(NCCc(o1)nnc1S(Cc(ccc(Cl)c1)c1Cl)(=O)=O)=O]
IC50 [1]: 4220 nM

CC(C)(C)c1ccc(S(=O)(=O)/C=C/C#N)cc1 [CHEMBL270299, CC(C)(C)c(cc1)ccc1S(/C=C/C#N)(=O)=O]
IC50 [1]: 840 nM

O=C(Cc1ccc(Cl)c(Cl)c1)Nc1cncc2cnccc12 [VLA-UNK-82501c2c-1]
IC50 (Mpro): 1.85 µM

O=C(Cc1ccc(Cl)c(Cl)c1)Nc1cncc2ccncc12 [VLA-UNK-82501c2c-2]
IC50 (Mpro): 1.79 µM

N#Cc1cc(Cl)cc(NC(=O)Nc2cccnc2)c1 [WAR-XCH-eb7b662f-2]
IC50 (Mpro): 99 µM

Cc1ccncc1NC(=O)Cc1cc(Cl)cc(NS(C)(=O)=O)c1 [WIL-MOD-03b86a88-5]
IC50 (Mpro): 21.8 µM
